Experiments:
[1] = tested on: hiPSC-derived endocrine progenitor cells; assay: Percentage of Neurogenin 3 protein expressing cells by flow cytometry; type: cell-based, human; settings: three days; 400 nM (+)-JQ1 or 2000 nM IBET-151; three biological experiments
Protocol: (§1) Human induced pluripotent stem cells (iPSC) and human embryonic stem cells (ESC) were cultured on standard tissue culture plastic ware coated with hESC-qualified matrigel in mTeSR1™medium. Cells were passaged every three to four days as single cells using TrypLe Select. Rock inhibitor (5 μM) was included at the first day of passaging. Three different iPSC lines derived from a total of two individual donors and one ESC line were applied.
(§2) For differentiation, cells were seeded as single cells in mTeSR1 with 5 μM Rock inhibitor into tissue culture plates (Corning CellBind) at densities ranging between 300-400.000 cells/cm^2. Cells were cultured for 24 h at 37° C., 5% CO2. Following incubation, medium was aspirated and the cells were washed once in PBS before adding the differentiation medium. Differentiation was carried out essentially as described in Rezania et al. (Rezania et al., 2014b). The differentiation protocol is outlined in FIG. 2A. […]
(§3) Differentiation efficiency was analyzed by flow cytometry essentially as described in van de Bunt et al., 2016. […] Unconjugated antibodies were detected with fluorophore conjugated secondary antibodies.

[2] = tested on: mouse embryonic pancreatic buds; assay: NGN3 immunohistochemistry and count of positive nuclei in cultured mouse pancreatic buds; type: cell-based; settings: five days culture; 0.5 μM IBET-151 or 0.1 μM (+)-JQ1; vs DMSO
Protocol: (§4) Mouse pancreatic buds were dissected from E11.5 C57Bl6/J embryos and placed at the air/medium interface on 0.45μm filters in culture dishes containing RPMI medium supplemented with 10% fetal calf serum, 1% penicillin-streptomycin, 1% non-essential amino acids and 10mM HEPES. Pancreatic buds were cultured at 37° C. with 5% CO2.
(§5) IBET-151 was obtained from Sigma-Aldrich and (+)/-JQ1 from Abcam. Stock solutions were prepared in DMSO. Inhibitors or DMSO (0.1% final concentration) were added to the culture medium which was changed daily.
Pancreatic buds were fixed in 3.7% formaldehyde, pre-embedded in agarose gel (4% of type VII low gelling temperature agarose (Sigma-Aldrich)) and embedded in paraffin. Sections (4 μm thick) were collected and processed for 3,3' diaminobenzidine immunohistological staining of NGN3, as previously described (Attali et al., 2007).
Photographs representative of a whole pancreas were taken using a transmitted light microscope (Leitz DMRB, Leica) and digitized using a Hammamatsu cooled 3CCCD camera. Total number of NGN3 positive nuclei per rudiment were then manually counted. Values represent the average of three experiments with standard deviation error bars. Statistical analysis was performed using unpaired Student t test.

[3] = tested on: hiPSC-derived pancreatic progenitors; assay: Viability and cell number by Nucleocounter after BET inhibitor treatment; type: cell-based, human; settings: three day treatment, all tested concentrations, vs concentration matched DMSO
Protocol: as §1, §2
Viability of the cells and total number of cells was analyzed using a Nucleocounter NC3000 Cell analyzer (Chemometec).

[4] = tested on: mouse embryonic pancreatic buds; assay: RT-qPCR of Ngn3, Ins1, Ins2 and MafA in cultured mouse pancreatic buds; type: cell-based; settings: for Ngn3 relative mRNA levels: 0.5 μM IBET-151 or 0.1 μM (+)-JQ1, vs DMSO
Protocol: as §4, §5
Total RNA from three or more pancreatic buds was extracted using Qiagen RNA extraction microkit and 250ng were reverse transcribed using maxima first strand cDNA synthesis kit from Thermo Fisher. Real-time PCR analysis of Ngn3, MafA and Cyclophylin A were performed in 1× Sybr Green Powermix in QuantStudio 3 Applied Biosystem system. Real-time PCR analysis of Ins1 and Ins2 were performed in 1× TaqMan Gene Expression Mastermix in a QuantStudio 3 Applied Biosystem system. Relative expression of Ngn3, MafA and Cyclophylin A were calculated using the comparative method of relative quantification (2^−ΔΔCT) normalized to cyclophilin A expression. Values represent the average of three experiments with standard deviation error bars. Statistical analysis was performed using unpaired Student t test.

[5] = tested on: genetically modified hESC line that express GFP under the control of the Neurogenin 3 promoter; assay: GFP reporter under Neurogenin 3 promoter in differentiated hESC line; type: cell-based, human; settings: three days; 400 nM (+)-JQ1 or 2000 nM IBET-151; vs DMSO
Protocol: as §1, §2, §3

[6] = tested on: hiPSC-derived pancreatic progenitors; assay: Neurogenin 3 mRNA by qPCR in hiPSC-derived pancreatic progenitors differentiated towards endocrine lineage; type: cell-based, human; settings: three days, six different concentrations
Protocol: as §1
For differentiation, cells were seeded as single cells in mTeSR1 with 5 μM Rock inhibitor into tissue culture plates (Corning CellBind) at densities ranging between 300-400.000 cells/cm^2. Cells were cultured for 24 h at 37° C., 5% CO2. Following incubation, medium was aspirated and the cells were washed once in PBS before adding the differentiation medium. […]
RNA was isolated from cells using NucleoSpin RNA/protein isolation kit (Macherey-Nagel). RNA was quantified using a nanodrop and […] RNA pr. sample was converted to cDNA using iScript reverse transcription kit (Bio-Rad). Gene expression was evaluated using Tagman gene expression assay for Neurogenin 3(Hs01875204, Applied Biosystems).
Neurogenin 3 transcripts were normalized to the average expression of two housekeeping genes (ACTB, Hs01060665_g1 and HPRT1, Hs99999909_m1, both from Applied Biosystems). Relative expression was calculated using the ΔΔCt method (FIGS. 2B and 2C).

[7] = tested on: hiPSC-derived endocrine progenitor cells; assay: Neurogenin 3 protein by immunofluorescence microscopy; type: cell-based, human; settings: three days; 500 nM (+)-JQ1 or 2000 nM IBET-151; vs DMSO
Protocol: as §1, §2

[8] = 5 days with inhibitor (0.5 μM IBET-151 or 0.1 μM (+)-JQ1), then 9 additional days without inhibitor

COc1cc2c(cc1-c1c(C)noc1C)ncc1[nH]c(=O)n([C@H](C)c3ccccn3)c12 [IBET-151]
number of cells expressing Neurogenin 3 protein relative to control treated cells [1]: approximately 1.6 fold
number of NGN3 positive nuclei [2]: increased
cell number compared to controls [3]: No obvious difference
viability compared to controls [3]: No obvious difference
Ins1 expression increase [4, 8]: 3 fold
Ins2 expression increase [4, 8]: 3 fold
MafA expression increase [4, 8]: 10 folds
Ngn3 relative mRNA levels ([4]; after 3 days of treatment): strongly increased
Ngn3 relative mRNA levels ([4]; after 7 days): remain increased
cells expressing GFP compared to the control [5]: more cells expressing GFP
Neurogenin 3 mRNA expression [6]: dose-dependent increase
concentration at which maximum Neurogenin 3 mRNA expression is achieved [6]: 2000 nM
number of cells positive for Neurogenin 3 protein [7]: clear increase
staining intensity of Neurogenin 3 in individual cells [7]: stronger
